What was measured:
Format in all cases: cell-based
IL-1α = assay: cytokine expression by RT-PCR in PHA-stimulated lymphocytes: IL-1α; settings: PHA + 12.5 μM, healthy cats (no PHA) = 1
Experimental: (§1) Lymphocytes are obtained from the blood of healthy cats and cats with IBD as described in Example 1 and then treated with DHA or EPA also as described in Example 1. Ribonucleic acid (RNA) is extracted from all samples, and real time polymerase chain reaction (RT-PCR) is performed to examine the changes in the level of expression of the following cytokines: interleukins 1α, 1β, 2, 6, and 10 (IL-1α, IL-1β, IL-2, IL-6, and IL-10), macrophage inhibitory factor (MIF), interferon gamma (IFN-γ), and transforming growth factor beta (TGF-β).

IL-10 = assay: cytokine expression by RT-PCR in PHA-stimulated lymphocytes: IL-10; settings: PHA + 12.5 μM, healthy cats (no PHA) = 1
Experimental: as §1

IFN-γ = assay: cytokine expression by RT-PCR in PHA-stimulated lymphocytes: IFN-γ; settings: PHA + 12.5 μM, healthy cats (no PHA) = 1
Experimental: as §1

MIF = assay: cytokine expression by RT-PCR in PHA-stimulated lymphocytes: MIF; settings: PHA + 12.5 μM, healthy cats (no PHA) = 1
Experimental: as §1

TGF-β = assay: cytokine expression by RT-PCR in PHA-stimulated lymphocytes: TGF-β; settings: PHA + 12.5 μM, healthy cats (no PHA) = 1
Experimental: as §1

IL-1β = assay: cytokine expression by RT-PCR in PHA-stimulated lymphocytes: IL-1β; settings: PHA + 12.5 μM, healthy cats (no PHA) = 1
Experimental: as §1

[1] = tested on: lymphocytes obtained from the blood of healthy cats and cats with IBD; assay: in vitro lymphocyte proliferation assay (BrdU ELISA, PHA-stimulated); settings: 40 h
Experimental: The study utilizes eleven healthy cats and eleven cats with IBD, The cats with IBD are diagnosed by an intestinal biopsy, and have a history of chronic diarrhea. For six weeks, all cats are fed a nutritionally adequate dry food indicated for gastrointestinal distress. Blood is drawn from all cats at four, five, and six weeks. Samples with equal amounts of lymphocytes are used in an in vitro lymphocyte proliferation assay.
More specifically, 4.5 ml blood is mixed with 4.5 ml HBSS (Hank's Balanced Salt Solution)+25 mM HEPES. 4 ml of Ficoll-Paque Plus (Amersham) are slowly injected under the diluted blood. The mixture is centrifuged for twenty minutes at 500 g at 25° C. The upper layer is discarded. The lymphocytes are transferred into a clean tube, resuspended in 6 ml of HBSS+25 mM HEPES, and then centrifuged for ten minutes at 200 g at 25° C. The supernatant is discarded, and the lymphocytes are washed with 6 ml of HBSS. This centrifugation and wash step is repeated two more times. The washed lymphocytes are then resuspended in 5 ml of AIM medium (Invitrogen). Samples with 200,000 lymphocytes in 100 μl of AIM medium are used for the lymphocyte proliferation assay.
The lymphocyte proliferation assay is performed utilizing Amersham's Biotrak cell proliferation ELISA system, version 2. Lymphocyte samples are incubated in a 96-well plate with 7 μg/ml PHA (phytohemagglutinin) in the absence or presence of 12.5 μM and 25 μM DHA or EPA in a 37° C. incubator with 5% CO2 and 90% humidity for forty hours. After that, 20 μl of 100 μM BrdU is added, and the samples are incubated for two hours at 37° C. The plates are then removed from the incubator and centrifuged at 300 g for ten minutes at 25° C. The medium is removed by tapping and blotting, and the cells are dried in a chemical fume hood for at least fifteen minutes. 200 μl of fixative is added to every well and the plate is incubated for thirty minutes at room temperature. The cell fixative is removed by tapping and blotting. 200 μl of blocking buffer are added to every well, and the plate is incubated for thirty minutes at room temperature. The blocking buffer is removed by tapping and blotting, and 100 μl of anti-BrdU working solution is added to each well and incubated for ninety minutes at room temperature. The anti-BrdU solution is removed by tapping and blotting, and each well is rinsed three times with 300 μl washing solution. 100 μl 3.3′,5,5′-tetamethylbenzidine is added to each well and incubated for ten minutes or until color intensity is achieved. 25 μl 1M sulfuric acid is added to stop the reaction, and the plate is read on a fusion microplate reader (PerkinElmer) within five minutes.

IL-2 = assay: cytokine expression by RT-PCR in PHA-stimulated lymphocytes: IL-2; settings: PHA + 12.5 μM, healthy cats (no PHA) = 1
Experimental: as §1

IL-6 = assay: cytokine expression by RT-PCR in PHA-stimulated lymphocytes: IL-6; settings: PHA + 12.5 μM, healthy cats (no PHA) = 1
Experimental: as §1

[2] = lymphocytes of cats with IBD, 7 μg/ml PHA + 12.5 μM fatty acid
[3] = lymphocytes of cats with IBD, 7 μg/ml PHA + 25 μM fatty acid
[4] = lymphocytes of healthy cats, 7 μg/ml PHA + 12.5 μM fatty acid
[5] = lymphocytes of healthy cats, 7 μg/ml PHA + 25 μM fatty acid

SMILES | IL-1α expression (IL-1α; cats with IBD) | IL-1α expression (IL-1α; healthy cats) | IL-10 expression (IL-10; cats with IBD) | IL-10 expression (IL-10; healthy cats) | IFN-γ expression (IFN-γ; cats with IBD) | IFN-γ expression (IFN-γ; healthy cats) | MIF expression (MIF; cats with IBD) | MIF expression (MIF; healthy cats) | TGF-β expression (TGF-β; cats with IBD) | TGF-β expression (TGF-β; healthy cats) | IL-1β expression (IL-1β; cats with IBD) | IL-1β expression (IL-1β; healthy cats) | Lymphocyte Proliferation [1, 2] | Lymphocyte Proliferation [1, 3] | Lymphocyte Proliferation [1, 4] | Lymphocyte Proliferation [1, 5] | IL-2 expression (IL-2; cats with IBD) | IL-2 expression (IL-2; healthy cats) | IL-6 expression (IL-6; cats with IBD) | IL-6 expression (IL-6; healthy cats)
CC/C=C\C/C=C\C/C=C\C/C=C\C/C=C\C/C=C\CCC(=O)O [DHA, docosahexaenoic acid] | 0.57 | 0.86 | 0.45 | 0.95 | 4.9 | 37.6 | 6.55 | 16.9 | 1.45 | 3.55 | 1.85 | 0.87 | 0.49 ± 0.15 | 0.45 ± 0.18 | 0.28 ± 0.19 | 0.25 ± 0.17 | 3 | 21.05 | 13.9 | 5.75
CC/C=C\C/C=C\C/C=C\C/C=C\C/C=C\CCCC(=O)O [EPA, eicosapentaenoic acid] | 0.46 | 1.05 | 0.34 | 1.2 | 4.45 | 130.9 | 4.45 | 14.05 | 2.4 | 4.7 | 1.34 | 1.17 | 0.62 ± 0.27 | 0.63 ± 0.29 | 0.38 ± 0.23 | 0.37 ± 0.23 | 1.89 | 59.4 | 6.45 | 10.6

From patent US9408817B2, “Methods for detecting inflammatory bowel disease in a feline” (Hill's Pet Nutrition, Inc., priority 2005, dated 2016)
